Structures are written as SMILES.

The first assay deals with A2780 cells. The assay is described as follows: In-Vitro Cell Proliferation Assay (A2780, sulforhodamine B, 72 hours). The format is cell-based. The following applies: Homo sapiens, A2780, 72 h, SRB.
Regarding `CC(C)C(=O)N1CCC2(CC1)CC2CNC(=O)c1cc2cnccc2[nH]1` (stereo not drawn) [Example 12], the IC50 is 2000 nM.
The same measure, in the same setting: as for `CCS(=O)(=O)N1CCC2(CC1)CC2CNC(=O)c1cc2cnccc2[nH]1` (stereo not drawn) [Example 14, N-[(8-ethylsulfonyl-8-azasprio[2.5]octan-2-yl)methyl]-1H-pyrrolo[3,2-c]pyridine-2-carboxamide], the figure is 2000 nM.
On the same count and under the same terms, under `CCC(=O)N1CCC2(CC1)CC2CNC(=O)c1cc2cnccc2[nH]1` (stereo not drawn) [Example 20] stands 2000 nM.
Compound `CN(C)Cc1ccc(C(=O)N2CCC3(CC2)CC3CNC(=O)c2cc3ccncc3o2)cc1` (stereo not drawn) [Example 71, N-[[6-[4-[(dimethylamino)methyl]benzoyl]-6-azaspiro[2.5]octan-2-yl]methyl]furo[2,3-c]pyridine-2-carboxamide] gave an IC50 of 13.7 nM.
On to `O=C(CCC1CCCCC1)N1CCC2(CC1)CC2CNC(=O)N1Cc2ccncc2C1` (stereo not drawn) [Example 197, N-[[6-(3-cyclohexylpropanoyl)-6-azaspiro[2.5]octan-2-yl]methyl]-1,3-dihydropyrrolo[3,4-c]pyridine-2-carboxamide], for which the midpoint of inhibition, the IC50, lay at 9.61 nM.
On the same count and under the same terms, as for `O=C(CCc1ccccc1)N1CCC2(CC1)CC2CNC(=O)N1Cc2ccncc2C1` (stereo not drawn) [Example 199, N-[[6-(3-phenylpropanoyl)-6-azaspiro[2.5]octan-2-yl]methyl]-1,3-dihydropyrrolo[3,4-c]pyridine-2-carboxamide], the figure is 184 nM.
The same measure, in the same setting: under `O=C(CCc1cccnc1)N1CCC2(CC1)CC2CNC(=O)N1Cc2ccncc2C1` (stereo not drawn) [Example 209, N-[[6-[3-(3-pyridyl)propanoyl]-6-azaspiro[2.5]octan-2-yl]methyl]-1,3-dihydropyrrolo[3,4-c]pyridine-2-carboxamide] stands 203 nM; under `CC(C)(O)CCC(=O)N1CCC2(CC1)CC2CNC(=O)N1Cc2ccncc2C1` (stereo not drawn) [Example 360, N-[[6-(4-hydroxy-4-methyl-pentanoyl)-6-azaspiro[2.5]octan-2-yl]methyl]-1,3-dihydropyrrolo[3,4-c]pyridine-2-carboxamide], 50.9 nM; under `CC1(C)CC1C(=O)N1CCC2(CC1)CC2CNC(=O)N1Cc2ccncc2C1` (stereo not drawn) [Example 377, N-[[6-(2,2-dimethylcyclopropanecarbonyl)-6-azaspiro[2.5]octan-2-yl]methyl]-1,3-dihydropyrrolo[3,4-c]pyridine-2-carboxamide], 1.59 nM.
Same read-out and setting: under `CC(C)(C)CS(=O)(=O)N1CCC2(CC1)CC2CNC(=O)c1cc2ccncc2[nH]1` (stereo not drawn) [Example 379, N-[[6-(2,2-dimethylpropylsulfonyl)-6-azaspiro[2.5]octan-2-yl]methyl]-1H-pyrrolo[3,2-c]pyridine-2-caarboxamide] stands 2000 nM.
Consider `CC(C)(C)CS(=O)(=O)N1CCC2(CC1)CC2CNC(=O)N1Cc2ccncc2C1` (stereo not drawn) [Example 381, N-[[6-(2,2-dimethylpropylsulfonyl)-6-azaspiro[2.5]octan-2-yl]methyl]-1,3-dihydropyrrolo[3,4-c]pyridine-2-carboxamide], for which 55.4 nM corresponded to half-maximal inhibition (IC50).
Still for that read-out and setting: under `CC(C)(O)COCC(=O)N1CCC2(CC1)CC2CNC(=O)N1Cc2ccncc2C1` (stereo not drawn) [Example 393, N-[[6-[2-(2-hydroxy-2-methyl-propoxy)acetyl]-6-azaspiro[2.5]octan-2-yl]methyl]-1,3-dihydropyrrolo[3,4-c]pyridine-2-carboxamide] stands 18.5 nM; under `O=C(NCC1CC12CCN(C(=O)c1cc(C(F)(F)F)[nH]n1)CC2)N1Cc2ccncc2C1` (stereo not drawn) [Example 396, N-[[6-[5-(trifluoromethyl)-1H-pyrazole-3-carbonyl]-6-azaspiro[2.5]octan-2-yl]methyl]-1,3-dihydropyrrolo[3,4-c]pyridine-2-carboxamdie], 17.5 nM; under `CC(C)(O)COC(=O)N1CCC2(CC1)CC2CNC(=O)c1cc2cnccc2[nH]1` (stereo not drawn) [Example 401, (2-hydroxy-2-methyl-propyl) 2-[(1H-pyrrolo[3,2-c]pyridine-2-carbonylamino)methyl]-6-azaspiro[2.5]octane-6-carboxylate], 2000 nM.

The assay is the same for the next values; noted with them: SRB.
On to `CC1(C)CC1C(=O)N1CCC2(CC1)CC2CNC(=O)c1cc2ccncc2o1` (stereo not drawn) [Example 373, N-[[6-(2,2-dimethylcyclopropanecarbonyl)-6-azaspiro[2.5]octan-2-yl]methyl]furo[2,3-c]pyridine-2-carboxamide], for which the half-maximal inhibitory concentration (IC50) was determined as 7.03 nM.

For orientation: IC50 means the concentration at which inhibition is half-maximal.

The values above are taken from patent publication US11485745B2, “Amido spirocyclic amide and sulfonamide derivatives” (Valo Health, Inc., priority 2012, dated 2022).
